Results taken from the supplement of paper PMC11061612.

Tests used:
Test in all cases: combination Emax (second highest fraction inhibited in the dose matrix, 72 h); higher = more inhibition; extreme values may be limits of the assay
[1] = tested on: BC-1 (B-Cell Non-Hodgkin's Lymphoma)
In short: (§1)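 Cell lines in DMEM/F12 or RPMI with 10% FBS were plated in 1536-well plates, held 24 hours at 37°C, 5% CO2, then given two-drug dose matrices for 72 hours (DMSO typically 0.2%). Viability was read by CellTiter-Glo 2.0 luminescence and scaled as inhibition from 0 (vehicle wells) to 1 (blank wells). Combination Emax is the second-highest inhibition in the matrix; Bliss excess is observed combination effect minus expected EA + EB − EA·EB, EA and EB being single-agent effects.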

[2] = tested on: BT-474 (Breast Carcinoma)
In short: as §1

[3] = tested on: C2BBe1 (Colorectal Carcinoma)
In short: as §1

[4] = tested on: COR-L105 (Lung Adenocarcinoma)
In short: as §1

DK-MG (Glioblastoma) = tested on: DK-MG (Glioblastoma)
In short: as §1

GCIY (Gastric Carcinoma) = tested on: GCIY (Gastric Carcinoma)
In short: as §1

[5] = tested on: GRANTA-519 (B-Cell Non-Hodgkin's Lymphoma)
In short: as §1

[6] = tested on: HT-1197 (Bladder Carcinoma)
In short: as §1

HT-144 (Melanoma) = tested on: HT-144 (Melanoma)
In short: as §1

[7] = tested on: JURL-MK1 (Chronic Myelogenous Leukemia)
In short: as §1

[8] = tested on: NCI-H1435 (Non-Small Cell Lung Carcinoma)
In short: as §1

[9] = tested on: NCI-H1944 (Lung Adenocarcinoma)
In short: as §1

[10] = tested on: NCI-H1975 (Lung Adenocarcinoma)
In short: as §1

[11] = tested on: RPMI-8402 (T-Lymphoblastic Leukemia)
In short: as §1

[12] = tested on: SCC90 (Head and Neck Carcinoma)
In short: as §1

SK-MEL-24 (Melanoma) = tested on: SK-MEL-24 (Melanoma)
In short: as §1

SK-N-DZ (Neuroblastoma) = tested on: SK-N-DZ (Neuroblastoma)
In short: as §1

[13] = tested on: SUP-HD1 (Hodgkin's Lymphoma)
In short: as §1

[14] = tested on: TK (B-Cell Non-Hodgkin's Lymphoma)
In short: as §1

[15] = tested on: TOV-21G (Ovarian Carcinoma)
In short: as §1

| SMILES | combination Emax [1] | combination Emax [2] | combination Emax [3] | combination Emax [4] | combination Emax (DK-MG (Glioblastoma)) | combination Emax (GCIY (Gastric Carcinoma)) | combination Emax [5] | combination Emax [6] | combination Emax (HT-144 (Melanoma)) | combination Emax [7] | combination Emax [8] | combination Emax [9] | combination Emax [10] | combination Emax [11] | combination Emax [12] | combination Emax (SK-MEL-24 (Melanoma)) | combination Emax (SK-N-DZ (Neuroblastoma)) | combination Emax [13] | combination Emax [14] | combination Emax [15] |
| --- | --- | --- | --- | --- | --- | --- | --- | --- | --- | --- | --- | --- | --- | --- | --- | --- | --- | --- | --- | --- |
| CC1(C)CCC(CN2CCN(c3ccc(C(=O)NS(=O)(=O)c4ccc(NCC5CCOCC5)c([N+](=O)[O-])c4)c(Oc4cnc5[nH]ccc5c4)c3)CC2)=C(c2ccc(Cl)cc2)C1 [Venetoclax] + Cc1cc2ncnn2cc1Nc1ncc2c(n1)n(C1CCOCC1)c(=O)n2C [AZD7648] (first compound max 1 µM, 7x7, partner max 10 µM) | 0.516 | 0.197 | 0.278 | 0.274 | 0.265 | 0.558 | 0.332 | 0.214 | 0.222 | 0.356 | 0.165 | 0.353 | 0.392 | 0.287 | 0.351 | 0.248 | 0.399 | 0.795 | 0.967 | 0.195 |
| CC1(C)CCC(CN2CCN(c3ccc(C(=O)NS(=O)(=O)c4ccc(NCC5CCOCC5)c([N+](=O)[O-])c4)c(Oc4cnc5[nH]ccc5c4)c3)CC2)=C(c2ccc(Cl)cc2)C1 [Venetoclax] + Cn1cnc2c(F)c(Nc3ccc(Br)cc3Cl)c(C(=O)NOCCO)cc21 [Selumetinib] (first compound max 1 µM, 7x7, partner max 3 µM) | 0.408 | 0.0915 | 0.329 | 0.362 | 0.362 | 0.514 | 0.323 | 0.254 | 0.654 | 0.876 | 0.156 | 0.239 | 0.28 | 0.084 | 0.726 | 0.553 | 0.246 | 0.809 | 0.981 | 0.216 |
